Measurements as given in patent publication US12558342B2, “2-[2-({12,12-dimethyl-4-oxo-6-phenyl-3,11-dioxatricyclo[8.4.0.0,2,7]tetradeca-1,5,7,9-tetraen-8-yl}oxy)acetamido]benzamide and derivatives as inhibitor of clock:bmal1 interaction for the treatment of circadian rhythm diseases and disorders” (KOC UNIVERSITESI, priority 2019, dated 2026).

Tests used:
[1] = tested on: Bmal1, Clock, and Cry1; assay: In vivo study in mouse liver, qPCR; conditions: 25 mg/kg i.p., 6 h
Description: Male C57BL/6J mice, 8 weeks of age, weighing 18-24 g were treated with two different single doses of CLK8 (25 mg/kg n=5 per each dose) intraperitoneally. Control mice (n=3) were only treated with vehicle (DMSO:Cremophor EL: 0.9% NaCl; 2.5:15:82.5, v/v, i.p.). Water and food were provided ad libitum throughout the experiments. Six hours after injection, mice were sacrificed by cervical dislocation. Liver tissues were removed, frozen in liquid nitrogen and stored at −80° C. until further processing.

[2] = tested on: core clock components; assay: Time dependent protein and mRNA analysis in synchronized U2OS cells; type: cell-based, human
Description: FIGS. 5A-5K are an illustration of FORMULA I altered CLOCK protein level in time dependent manner. Confluent U2OS cells were synchronized by 2-hours treatment with dexamethasone (0.1 μM) and medium replaced with fresh medium containing CLK8 or DMSO. Cells were harvested at indicated time points. FIGS. 5A-5D show a time dependent analysis of core clock proteins by Western blot. (mean±SEM, n=3). FIGS. 5E-5K show a qPCR analysis of the core clock genes in a time dependent manner. (Data represent the mean±SEM, n=3 ***: p<0.001 **: p<0.005, *: p<0.05 versus DMSO control by one-way ANOVA Tukey).
Unsynchronized Bmal1::dluc U2OS cells were seeded on 6-well dishes. Confluent cells were treated with an appropriate amount of CLK8 for 48 hours. Control cells were treated with 0.5% vehicle (DMSO). After harvesting the cells, mRNAs were isolated (RNeasy, QIAGEN) and converted to cDNA (Thermo Scientific). Finally, cDNAs were subjected to SYBR Green-based RT-qPCR assay. PRLP0 was used as an internal control. For western blot analysis RIPA buffer was used to prepare whole cell lysates. The amount of protein for each sample was normalized to the β-ACTIN amount detected by β-Actin antibody (Cell Signalling).

[3] = biological target: T1, CLOCK and BMAL1 interaction (Homo sapiens, UniProt O15516); assay: Co-immunoprecipitation of FLAG-CLOCK and BMAL1; type: biochemical; conditions: 10 μM and 40 μM
T1 construct: expressed in transfected cells; host or cells: HEK 293T
T1 sequence (O15516 1-846): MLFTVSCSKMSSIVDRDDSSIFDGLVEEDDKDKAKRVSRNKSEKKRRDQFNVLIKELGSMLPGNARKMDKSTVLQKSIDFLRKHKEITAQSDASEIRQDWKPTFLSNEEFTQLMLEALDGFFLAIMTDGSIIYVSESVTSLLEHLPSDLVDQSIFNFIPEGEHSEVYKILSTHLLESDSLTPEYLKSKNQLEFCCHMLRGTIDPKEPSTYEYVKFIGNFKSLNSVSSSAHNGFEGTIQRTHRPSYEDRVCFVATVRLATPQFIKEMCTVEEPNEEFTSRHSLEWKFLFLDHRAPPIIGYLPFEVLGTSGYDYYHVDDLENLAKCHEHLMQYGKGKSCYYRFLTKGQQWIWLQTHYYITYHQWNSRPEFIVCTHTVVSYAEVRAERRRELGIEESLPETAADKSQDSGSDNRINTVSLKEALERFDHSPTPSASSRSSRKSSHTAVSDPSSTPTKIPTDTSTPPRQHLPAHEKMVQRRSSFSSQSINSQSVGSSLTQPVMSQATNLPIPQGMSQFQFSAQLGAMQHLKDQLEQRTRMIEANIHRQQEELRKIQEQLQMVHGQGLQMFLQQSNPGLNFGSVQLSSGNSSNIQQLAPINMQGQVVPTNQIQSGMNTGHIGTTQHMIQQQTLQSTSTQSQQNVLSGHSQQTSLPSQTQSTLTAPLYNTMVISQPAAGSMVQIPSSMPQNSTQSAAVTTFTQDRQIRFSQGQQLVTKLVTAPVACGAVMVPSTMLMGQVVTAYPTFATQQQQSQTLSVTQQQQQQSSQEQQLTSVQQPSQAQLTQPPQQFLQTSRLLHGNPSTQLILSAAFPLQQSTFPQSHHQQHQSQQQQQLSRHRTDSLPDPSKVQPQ
Description: HEK 293T cells co-expressing wild type or F80A-K220A mutant FLAG-tagged Clock together with tag-free Bmal1 were lysed with ice-cold lysis buffer (50 mM Tris-HCl PH 7.7, 150 mM NaCl, 0.1% Triton X-100, 1 mM PMSF and protease inhibitor cocktail) and centrifuged at 15000×g at 4° C. for 20 minutes. DMSO and different concentrations of CLK8 were added to the whole cell lysate. The mixtures were incubated with anti-FLAG M2 affinity gel (Sigma-Aldrich) at 4° C. overnight with continuous mixing. After three wash steps, bound proteins were eluted with Laemmli buffer heated at 95° C. for 7 minutes. CLOCK and BMAL1 were detected by monoclonal anti-FLAG M2 antibody (Sigma-Aldrich) and anti-BMAL1 (Santa Cruz Biotechnology) respectively. The amount of co-precipitated BMAL1 was normalized with the amount of precipitated CLOCK.
HEK 293T cells co-expressing wild type or F80A-K220A mutant FLAG-tagged Clock together with tag-free Bmal1 were lysed with ice-cold lysis buffer (50 mM Tris-HCl pH 7.7, 150 mM NaCl, 0.1% Triton X-100, 1 mM PMSF and protease inhibitor cocktail) and centrifuged at 15000×g at 4° C. for 20 minutes. DMSO and different concentrations of CLK8 were added to the whole cell lysate. […] CLOCK and BMAL1 were detected by monoclonal anti-FLAG M2 antibody (Sigma-Aldrich) and anti-BMAL1 (Santa Cruz Biotechnology) respectively. […]

[4] = biological target: T2, CLOCK (Homo sapiens, UniProt O15516); assay: Cytosol-nuclear fractionation of U2OS cells, CLOCK; type: cell-based; conditions: 20 μM, two days
T2 sequence (O15516 1-846): T1 sequence (O15516 1-846)
Description: U2 OS cells treated with 20 μM CLK8 and 0.5% DMSO were used for fractionation analysis. The 4×10^5 was suspended in 500 ul cytosolic lysis buffer (10 mM HEPES pH 7,9, 10 mM KCl, 0.1 mM EDTA, 0.05% NP40 with protease inhibitors) and incubated on ice for 10 minutes. The lysate was centrifuged for 3 minutes at 3000 rpm at 4° C. The resulting supernatant was centrifuged one more time and supernatant collected as cytosolic fraction. On the other hand, the resulting pellet from lysate centrifugation was suspended in nuclear lysis buffer (20 mM HEPES pH 7.9, 0.4 M NaCl, 1 mM EDTA, 10% glycerol with protease inhibitors) and sonicated 2 times 10 seconds with 60% power. After centrifuge at 15 000 g for 5 minutes at 4° C., supernatant was collected as nuclear fraction. Collected fractions were used for Western Blot analysis. Fractionation efficiency was checked with Western Blot by using tubulin (Sigma T9026) as cytosolic marker and Histone-H3 (abcam ab1791) as nuclear marker.

CC1(C)CCc2c(cc(OCC(=O)Nc3ccccc3C(N)=O)c3c(-c4ccccc4)cc(=O)oc23)O1 [CLK8, 2-[2-({12,12-dimethyl-4-oxo-6-phenyl-3,11-dioxatricyclo [8.4.0.0,2,7]tetradeca-1,5,7,9-tetraen-8-yl}oxy)acetamido] benzamide]
Cry1 gene's transcriptional level (liver) [1]: significantly changed
CRY1 and PER2 protein abundance [2]: comparable protein abundance
CRY1 and PER2 transcript level [2]: significantly reduced
protein levels of CLOCK and BMAL1 [2]: reduced
transcriptional level of Clock [2]: increased
oscillatory amplitude of clock gene expression ([2]; collected every 6 h): generally lower
amount of co-precipitated BMAL1 [3]: reduced as the concentration of CLK8 increased
level of CLOCK in the nucleus [4]: reduced
